# PubChem BioAssay AID652210 (Johns Hopkins Ion Channel Center, 2013)
# The source made the active and inactive calls.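 The calls were made as follows: active = over half block of KCNK9 potassium channel current at 10 µM; inactive = the rest.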
# Target: Potassium channel subfamily K member 9 (Homo sapiens) (UniProt Q9NPC2)
# Experiment: TASK3 channel blockers, electrophysiology – cell-based, automated electrophysiology, selectivity assay for TASK1 (KCNK3) inhibitor project, SAR follow-up (AID 652210)
# Conditions: HEK293 inducible KCNK9, QPatch automated patch clamp
# Chain of Potassium channel subfamily K member 9 (Homo sapiens) (Q9NPC2 whole entry, looked up): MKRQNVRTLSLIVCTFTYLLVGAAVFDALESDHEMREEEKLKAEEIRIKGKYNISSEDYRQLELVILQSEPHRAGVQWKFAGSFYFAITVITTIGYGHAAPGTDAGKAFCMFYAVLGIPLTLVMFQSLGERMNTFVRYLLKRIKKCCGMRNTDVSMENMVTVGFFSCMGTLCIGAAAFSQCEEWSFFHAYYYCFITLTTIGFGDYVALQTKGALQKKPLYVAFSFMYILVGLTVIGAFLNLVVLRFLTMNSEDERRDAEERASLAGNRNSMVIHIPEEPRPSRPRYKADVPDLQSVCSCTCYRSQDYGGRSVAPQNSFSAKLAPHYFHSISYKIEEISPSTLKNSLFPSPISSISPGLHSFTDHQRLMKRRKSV
row,SMILES,IC50
1,Cc1cccc(C(=O)Nc2cccc(NC(=O)c3ccccc3)c2)c1,690 nM
2,Cc1cccc(C(=O)Nc2cccc(NC(=O)c3ccncc3)c2)c1,inactive
